Where “and” joins values, the source holds several entries; their conditions need not be identical. Equal values may be shown once. Inconclusive results and toxic doses are left out. Rule as the data show it: active = T/C of 150% or more; inactive = T/C below 125%.
Tested on: L1210 leukemia ip in BDF1 mice, survival T/C
Assay: NCI In Vivo Anticancer Drug Screen. Data for tumor model L1210 Leukemia (intraperitoneal) in B6D2F1 (BDF1) mice
Conditions: endpoint: mean survival time, higher = longer survival
Method in brief: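 Survival endpoint. Drug-treated group vs vehicle group, expressed as T divided by C. Tumor passaged by transplantation.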

[1] = dose: 100.0 mg/kg/injection, schedule: Q01DX001 (ip), vehicle: saline
[2] = dose: 200.0 mg/kg/injection, schedule: Q01DX001 (ip), vehicle: saline
[3] = dose: 400.0 mg/kg/injection, schedule: Q01DX001 (ip), vehicle: saline
[4] = dose: 75.0 mg/kg/injection, schedule: Q01DX001 (ip), vehicle: saline
[5] = dose: 150.0 mg/kg/injection, schedule: Q01DX001 (ip), vehicle: saline
[6] = dose: 300.0 mg/kg/injection, schedule: Q01DX001 (ip), vehicle: saline
[7] = dose: 25.0 mg/kg/injection, schedule: Q04DX002 (ip), vehicle: Klucel (hydroxypropylcellulose) (HPC)
[8] = dose: 50.0 mg/kg/injection, schedule: Q04DX002 (ip), vehicle: Klucel (hydroxypropylcellulose) (HPC)
[9] = dose: 100.0 mg/kg/injection, schedule: Q04DX002 (ip), vehicle: Klucel (hydroxypropylcellulose) (HPC)
[10] = dose: 50.0 mg/kg/injection, schedule: Q04DX003 (ip), vehicle: saline with Tween-80
[11] = dose: 100.0 mg/kg/injection, schedule: Q04DX003 (ip), vehicle: saline with Tween-80
[12] = dose: 200.0 mg/kg/injection, schedule: Q04DX003 (ip), vehicle: saline with Tween-80
[13] = dose: 400.0 mg/kg/injection, schedule: Q04DX003 (ip), vehicle: saline with Tween-80
[14] = dose: 100.0 mg/kg/injection, schedule: Q04DX003 (ip), vehicle: Klucel (hydroxypropylcellulose) (HPC)
[15] = dose: 200.0 mg/kg/injection, schedule: Q04DX003 (ip), vehicle: Klucel (hydroxypropylcellulose) (HPC)
[16] = dose: 400.0 mg/kg/injection, schedule: Q04DX003 (ip), vehicle: Klucel (hydroxypropylcellulose) (HPC)

Measured: T/C

O=C(Nc1ccccc1)OCCCC1CCCC1
inactive: dose: 100.0 mg/kg/injection, schedule: Q01DX009 (sc), vehicle: olive oil, sesame oil, peanut oil 108 % of control | dose: 200.0 mg/kg/injection, schedule: Q01DX009 (sc), vehicle: olive oil, sesame oil, peanut oil 105 % of control | dose: 400.0 mg/kg/injection, schedule: Q01DX009 (sc), vehicle: olive oil, sesame oil, peanut oil 100 % of control

COC(=O)C(N=O)C(=O)OC
inactive: [1] 104 % of control | [2] 109 % of control | [3] 106 % of control

CCCCSP(=O)(N1CCCCC1)N1CCCCC1
inactive: dose: 25.0 mg/kg/injection, schedule: Q04DX002 (ip), vehicle: saline with Tween-80 97 % of control | dose: 50.0 mg/kg/injection, schedule: Q04DX002 (ip), vehicle: saline with Tween-80 97 % of control | dose: 100.0 mg/kg/injection, schedule: Q04DX002 (ip), vehicle: saline with Tween-80 92 % of control and 94 % of control

CN(Cc1ccc2nc(N)[nH]c(=O)c2c1)c1ccc(C(=O)NC(CCC(=O)O)C(=O)O)cc1 (centres undefined)
inactive: dose: 50.0 mg/kg/injection, schedule: Q01DX009 (ip), vehicle: water 104 % of control | dose: 100.0 mg/kg/injection, schedule: Q01DX009 (ip), vehicle: water 113 % of control | dose: 100.0 mg/kg/injection, schedule: Q04DX003 (ip), vehicle: water 108 % of control | dose: 200.0 mg/kg/injection, schedule: Q04DX003 (ip), vehicle: water 100 % of control

O=[N+]([O-])c1ccc(Oc2cc(Cl)c(Cl)cc2Cl)c(Cl)c1
inactive: [4] 87 % of control | [5] 90 % of control | [6] 87 % of control

NC(N)=NN=C(c1ccccc1)c1ccccc1
inactive: dose: 15.0 mg/kg/injection, schedule: Q01DX Z (ip), vehicle: other 101 % of control | dose: 30.0 mg/kg/injection, schedule: Q01DX Z (ip), vehicle: other 98 % of control | dose: 60.0 mg/kg/injection, schedule: Q01DX Z (ip), vehicle: other 106 % of control

CC(C)C(=O)NC1CCCCC1
inactive: [7] 111 % of control | [8] 111 % of control | [9] 101 % of control

CCCCCCCCCCCCCCCCCC(=O)NCCCNC(=O)CCCCCCCCCCCCCCCCC
inactive: [4] 98 % of control | [5] 95 % of control | [6] 106 % of control

Cc1no[n+]([O-])c1-c1nc(SCC(=O)NN)n[nH]1
inactive: [7] 91 % of control | [8] 95 % of control | [9] 102 % of control

NC(=O)c1c(Br)c(Br)c(Br)c(Br)c1C(=O)O (tested in a mixture with another compound)
inactive: [10] 96 % of control | [11] 91 % of control and 100 % of control and 90 % of control | [12] 93 % of control and 98 % of control | [13] 93 % of control and 90 % of control

CNC(c1ccncc1)C(NC)c1ccncc1 (centres undefined)
inactive: dose: 100.0 mg/kg/injection, schedule: Q01DX009 (ip), vehicle: Klucel (hydroxypropylcellulose) (HPC) 94 % of control | [14] 95 % of control | dose: 200.0 mg/kg/injection, schedule: Q01DX009 (ip), vehicle: Klucel (hydroxypropylcellulose) (HPC) 91 % of control | [15] 95 % of control | dose: 400.0 mg/kg/injection, schedule: Q01DX009 (ip), vehicle: Klucel (hydroxypropylcellulose) (HPC) 96 % of control | [16] 95 % of control

O=C(Nc1ccc(Cl)cc1)c1cccnc1
inactive: dose: 100.0 mg/kg/injection, schedule: Q01DX009 (ip), vehicle: saline with Tween-80 95 % of control | [11] 96 % of control | dose: 200.0 mg/kg/injection, schedule: Q01DX009 (ip), vehicle: saline with Tween-80 97 % of control | [12] 98 % of control | [13] 91 % of control

O=[N+]([O-])c1cccc(S(=O)(=O)NNc2cccc(C(F)(F)F)c2)c1
inactive: [14] 99 % of control | [15] 94 % of control | [16] 89 % of control

CC(=O)C1(C)OC(c2ccc(F)cc2)=NC1=O (centres undefined)
inactive: [1] 102 % of control | [2] 102 % of control | [3] 98 % of control

CCCCCCCC[As](=O)(O)CCCCCCCC
inactive: dose: 50.0 mg/kg/injection, schedule: Q01DX001 (ip), vehicle: saline 101 % of control | [1] 101 % of control | [2] 98 % of control | [3] 107 % of control

c1cnc(N2CCCCC2)cn1
inactive: [1] 94 % of control | [2] 96 % of control | [3] 102 % of control

O=C(CC(O)(C(F)(F)F)C(F)(F)F)c1ccc(C(O)CC(O)(C(F)(F)F)C(F)(F)F)cc1 (centres undefined)
inactive: dose: 25.0 mg/kg/injection, schedule: Q01DX009 (ip), vehicle: gum acacia 106 % of control | dose: 25.0 mg/kg/injection, schedule: Q04DX003 (ip), vehicle: gum acacia 102 % of control | dose: 50.0 mg/kg/injection, schedule: Q01DX009 (ip), vehicle: gum acacia 89 % of control | dose: 50.0 mg/kg/injection, schedule: Q04DX003 (ip), vehicle: gum acacia 90 % of control | dose: 100.0 mg/kg/injection, schedule: Q04DX003 (ip), vehicle: gum acacia 93 % of control and 98 % of control

CN(C)c1ccc(/C=C(/NC(=O)c2ccccc2)C(N)=O)cc1
inactive: [14] 94 % of control | [15] 96 % of control | [16] 94 % of control

Nc1cc[n+](-c2ccc([N+](=O)[O-])cc2[N+](=O)[O-])cc1
inactive: dose: 12.5 mg/kg/injection, schedule: Q01DX009 (ip), vehicle: Klucel (hydroxypropylcellulose) (HPC) 98 % of control | dose: 25.0 mg/kg/injection, schedule: Q01DX009 (ip), vehicle: Klucel (hydroxypropylcellulose) (HPC) 100 % of control

O=C(N=C=S)c1ccccc1
inactive: dose: 100.0 mg/kg/injection, schedule: Q01DX009 (ip), vehicle: other 95 % of control | dose: 200.0 mg/kg/injection, schedule: Q01DX009 (ip), vehicle: other 87 % of control | dose: 400.0 mg/kg/injection, schedule: Q01DX009 (ip), vehicle: other 89 % of control

CC(C)NC(=O)C1C2CC3OC(=O)C1C3C2 (centres undefined)
inactive: dose: 100.0 mg/kg/injection, schedule: Q04DX003 (ip), vehicle: saline 98 % of control | dose: 200.0 mg/kg/injection, schedule: Q04DX003 (ip), vehicle: saline 98 % of control and 88 % of control | dose: 400.0 mg/kg/injection, schedule: Q04DX003 (ip), vehicle: saline 101 % of control and 95 % of control

CCOC(=O)C1(C(=O)OCC)CCC(O)N1C(=O)c1cc2c(cc1[N+](=O)[O-])OCO2 (centres undefined)
inactive: [14] 91 % of control | [15] 99 % of control | [16] 100 % of control

O=C(CCl)NCCCNC(=O)CCl
inactive: dose: 6.25 mg/kg/injection, schedule: Q01DX009 (ip), vehicle: other 94 % of control | dose: 12.5 mg/kg/injection, schedule: Q01DX009 (ip), vehicle: other 94 % of control | dose: 25.0 mg/kg/injection, schedule: Q01DX009 (ip), vehicle: other 94 % of control | dose: 25.0 mg/kg/injection, schedule: Q04DX003 (ip), vehicle: saline with Tween-80 98 % of control | [10] 102 % of control | [11] 111 % of control

COc1ccc(NCC(O)CN2CCCCC2)cc1 (centres undefined)
inactive: [1] 94 % of control

CCCCCCCC(=O)Nc1cc(C(F)(F)F)ccc1Cl
inactive: [11] 92 % of control | [12] 98 % of control | [13] 87 % of control

CCn1cnc2cc(N=Cc3ccc(N(CCCl)CCCl)cc3Cl)ccc21
inactive: [9] 117 % of control | dose: 200.0 mg/kg/injection, schedule: Q04DX002 (ip), vehicle: Klucel (hydroxypropylcellulose) (HPC) 102 % of control | dose: 400.0 mg/kg/injection, schedule: Q04DX002 (ip), vehicle: Klucel (hydroxypropylcellulose) (HPC) 98 % of control

COc1ccc(CCN2C(=O)c3cccc4c(Br)ccc(c34)C2=O)cc1
inactive: dose: 100.0 mg/kg/injection, schedule: Q04DX002 (ip), vehicle: saline 93 % of control | dose: 200.0 mg/kg/injection, schedule: Q04DX002 (ip), vehicle: saline 93 % of control | dose: 400.0 mg/kg/injection, schedule: Q04DX002 (ip), vehicle: saline 97 % of control

CN(C)CCN(CC(=O)O)CC(=O)O
inactive: [1] 100 % of control | [2] 102 % of control | [3] 100 % of control

CC(CC=O)CCCC(C)(C)O (centres undefined)
inactive: dose: 100.0 mg/kg/injection, schedule: Q01DX009 (ip), vehicle: saline 102 % of control | dose: 200.0 mg/kg/injection, schedule: Q01DX009 (ip), vehicle: saline 102 % of control | dose: 400.0 mg/kg/injection, schedule: Q01DX009 (ip), vehicle: saline 93 % of control

CN1CCC(SC(=O)C(O)(c2ccccc2)c2ccccc2)CC1
inactive: [4] 94 % of control | [5] 95 % of control
